The text below walks through data of patent publication US10946071B2 (MediciNova, Inc., priority 2018, dated 2021).

For series [1] the following is noted: Sanftner et al., Xenobiotica 2009; cited from earlier work.
In series [2] the test system is subjects with primary or secondary progressive multiple sclerosis. As to the kind of experiment: Phase 2 randomized, double-blind, placebo-controlled 96 week study: progression of disability (EDSS), Cox proportional-hazards regression. The format is in vivo, human. To be noted: for Risk of Confirmed Disability Progression: Cox Hazard Ratio (ibudilast vs. placebo): ibudilast 100 mg/d, 90% CI. Here is the method: A total of 255 male and female subjects from 21 to 65 years old, inclusive, were enrolled into one of two treatment arms (ibudilast 100 mg/d or matching-placebo). […] During the study, subjects were allowed to change medications from one injectable to the other. […] Inhaled and topical steroids are allowed. If a relapse episode occured, a single course of systemic corticosteroids was permitted, as prescribed by the treating neurologist. Subjects returned to the clinic for follow-up visits on a regular basis at Week 4, 8, 12, 24, 36, 48, 60, 72, 84 and 96.
The double-blind Treatment Phase consisted of a Baseline visit followed by 10 scheduled clinic visits. The Baseline Visit had to have occured within 45 days following the Screening Visit. At the Baseline Visit (Day 1), subjects who completed all of the screening assessments and continued to meet eligibility criteria were randomized to one of two treatment groups (ibudilast 100 mg/d or placebo) in a 1:1 ratio.
Subjects took their first dose of study medication (30 mg ibudilast or placebo) on the evening of the Baseline Visit (Day 1). On the morning of Day 2, all subjects begun a 3 capsule BID dosing regimen through Day 14. Subjects randomized to ibudilast started at 60 mg/d (30 mg BID) on Day 2 and remained on 60 mg/d through Day 14. Beginning on Day 15, all subjects increased dosing to 5 capsules BID regimen; those randomized to the ibudilast treatment arm were taking 100 mg/d.
After Day 15, subjects with intolerable side-effects (e.g., nausea, diarrhea, vertigo) were allowed to reduced their dose to either 4 capsules twice a day (80 mg/d for those taking ibudilast) or 3 capsules twice a day (60 mg/d for those taking ibudilast). Subjects with intolerable side-effects (e.g., nausea, diarrhea, vertigo) at the end of Day 14 were allowed to continue taking 3 capsules twice a day at the Investigator's discretion. At the Investigator's discretion, the daily dose of ibudilast were potentially adjusted between 3 capsules twice a day, 4 capsules twice a day, and 5 capsules twice a day over the first 8 weeks of treatment. At the Investigator's discretion, the daily dose of ibudilast could have been divided and taken three times per day if needed to improve tolerability. […] The dosing interval was either twice a day or 3 times per day, at the Investigator's discretion. The dosing interval could also be changed to between twice and three times per day over the course of the entire study, at the Investigator's discretion.
Progression of disability was measured according to the score on the Expanded Disability Status Scale (EDSS; range, 0 to 10 in 0.5-point increments, with higher scores indicating more disability) with the use of Cox proportional-hazards regression. Confirmed disability progression was defined as an increase in the EDSS score of at least 1.0 point from baseline (or an increase of ≥0.5 points for patients with a baseline EDSS score of >5.0) that was sustained for at least 20 weeks.

With `CC(C)C(=O)c1c(C(C)C)nn2ccccc12` [ibudilast, 3-isobutyryl-2-isopropylpyrazolo[1,5-a]pyridine], the CNS penetration entry in series [1] is on record as “good CNS penetration”. In series [2] (all subjects, ibudilast 100 mg/d oral vs placebo, 96 weeks, 95% CI), the “hazard ratio for 20-week confirmed disability progression (as measured by the EDSS score) with ibudilast as compared with placebo” value was 0.74. Also, the “probability of no progression at week 72” value in series [2] (subgroup receiving interferon-beta, ibudilast arm (placebo arm 0.804)) stood at 0.952. Further, in series [2] (subgroup receiving interferon-beta, week 96, 90% CI: −0.499 to −0.068), the “proportion of subjects with disability progression at week 96 (not confirmed progression): ibudilast vs. placebo risk difference” value is listed as −0.283. The entries for the “time to confirmed disability progression, ibudilast compared with placebo (in words)” value in series [2] (subgroup taking GA as concomitant medication) and in series [2] (the other two subgroups (concomitant interferon-beta; no concomitant medication)) were “the placebo arm was superior to ibudilast” and “ibudilast was better than placebo”, respectively. Further, the “Risk of Confirmed Disability Progression: Cox Hazard Ratio (ibudilast vs. placebo)” value in series [2] (subgroup: concomitant medication taking GA (glatiramer acetate)) is recorded as 1.229; in series [2] (subgroup: concomitant medication taking Interferon-Beta), 0.238; in series [2] (subgroup: no concomitant glatiramer acetate or interferon-beta), 0.672.
